According to PubChem BioAssay AID248 (DTP/NCI, 2004):
Several values for one entry are separate records, joined by “and”; a condition that tells them apart may be missing. Equal entries are not always repeated. Inconclusive results and toxic doses are left out. Cut-off read from the data, not from the text of the source: active = T/C of 150% or more; inactive = T/C below 125%.

System: L1210 leukemia ip in BDF1 mice, survival T/C
Assay: NCI In Vivo Anticancer Drug Screen. Data for tumor model L1210 Leukemia (intraperitoneal) in B6D2F1 (BDF1) mice
Conditions: higher = longer survival
How it was run: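 Transplanted-tumor mice were given test agent; controls received vehicle only. Survival readings from the two groups were divided (treated over control).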

[1] = endpoint: mean survival time, dose: 100.0 mg/kg/injection, schedule: Q01DX009 (ip), vehicle: saline with Tween-80
[2] = endpoint: mean survival time, dose: 100.0 mg/kg/injection, schedule: Q04DX003 (ip), vehicle: saline with Tween-80
[3] = endpoint: mean survival time, dose: 200.0 mg/kg/injection, schedule: Q01DX009 (ip), vehicle: saline with Tween-80
[4] = endpoint: mean survival time, dose: 200.0 mg/kg/injection, schedule: Q04DX003 (ip), vehicle: saline with Tween-80
[5] = endpoint: mean survival time, dose: 400.0 mg/kg/injection, schedule: Q04DX003 (ip), vehicle: saline with Tween-80
[6] = endpoint: mean survival time, dose: 100.0 mg/kg/injection, schedule: Q01DX001 (ip), vehicle: saline with Tween-80
[7] = endpoint: mean survival time, dose: 200.0 mg/kg/injection, schedule: Q01DX001 (ip), vehicle: saline with Tween-80
[8] = endpoint: mean survival time, dose: 100.0 mg/kg/injection, schedule: Q01DX001 (ip), vehicle: saline
[9] = endpoint: mean survival time, dose: 200.0 mg/kg/injection, schedule: Q01DX001 (ip), vehicle: saline
[10] = endpoint: mean survival time, dose: 400.0 mg/kg/injection, schedule: Q01DX001 (ip), vehicle: saline
[11] = endpoint: mean survival time, dose: 75.0 mg/kg/injection, schedule: Q01DX001 (ip), vehicle: saline
[12] = endpoint: mean survival time, dose: 150.0 mg/kg/injection, schedule: Q01DX001 (ip), vehicle: saline
[13] = endpoint: mean survival time, dose: 100.0 mg/kg/injection, schedule: Q04DX003 (ip), vehicle: Klucel (hydroxypropylcellulose) (HPC)
[14] = endpoint: mean survival time, dose: 200.0 mg/kg/injection, schedule: Q04DX003 (ip), vehicle: Klucel (hydroxypropylcellulose) (HPC)
[15] = endpoint: mean survival time, dose: 100.0 mg/kg/injection, schedule: Q01DX009 (ip), vehicle: Klucel (hydroxypropylcellulose) (HPC)
[16] = endpoint: mean survival time, dose: 200.0 mg/kg/injection, schedule: Q01DX009 (ip), vehicle: Klucel (hydroxypropylcellulose) (HPC)
[17] = endpoint: mean survival time, dose: 400.0 mg/kg/injection, schedule: Q01DX009 (ip), vehicle: Klucel (hydroxypropylcellulose) (HPC)

Measured: T/C

CC(C)C(=O)c1ccc([N+](=O)[O-])o1
inactive: [1] 94 % of control | [2] 99 % of control | [3] 96 % of control | [4] 99 % of control | [5] 88 % of control

COc1cc(C)c(C)cc1/C(C)=C(/C)C(=O)O (tested in a mixture with another compound)
inactive: [6] 100 % of control | [7] 100 % of control | endpoint: mean survival time, dose: 400.0 mg/kg/injection, schedule: Q01DX001 (ip), vehicle: saline with Tween-80 103 % of control

O=[N+]([O-])c1c(Cl)ccc2nsnc12
inactive: endpoint: mean survival time, dose: 12.5 mg/kg/injection, schedule: Q04DX003 (ip), vehicle: Klucel (hydroxypropylcellulose) (HPC) 96 % of control | endpoint: mean survival time, dose: 25.0 mg/kg/injection, schedule: Q04DX003 (ip), vehicle: Klucel (hydroxypropylcellulose) (HPC) 93 % of control

O=C1c2ccsc2C(=O)c2sccc21
inactive: [6] 103 % of control | [7] 92 % of control

O=C1C(Cl)CCCCC1Cl (stereo not drawn)
inactive: endpoint: mean survival time, dose: 100.0 mg/kg/injection, schedule: Q01DX009 (ip), vehicle: acetone 93 % of control | endpoint: mean survival time, dose: 100.0 mg/kg/injection, schedule: Q04DX003 (ip), vehicle: acetone 111 % of control | endpoint: mean survival time, dose: 200.0 mg/kg/injection, schedule: Q01DX009 (ip), vehicle: acetone 91 % of control | endpoint: mean survival time, dose: 200.0 mg/kg/injection, schedule: Q04DX003 (ip), vehicle: acetone 111 % of control | endpoint: mean survival time, dose: 400.0 mg/kg/injection, schedule: Q04DX003 (ip), vehicle: acetone 92 % of control

N/N=C(\c1ccccc1)c1ccc(Cl)cc1
inactive: endpoint: mean survival time, dose: 100.0 mg/kg/injection, schedule: Q01DX001 (ip), vehicle: carboxymethylcellulose (CMC) 96 % of control | endpoint: mean survival time, dose: 200.0 mg/kg/injection, schedule: Q01DX001 (ip), vehicle: carboxymethylcellulose (CMC) 87 % of control | endpoint: mean survival time, dose: 400.0 mg/kg/injection, schedule: Q01DX001 (ip), vehicle: carboxymethylcellulose (CMC) 95 % of control

Nc1nc(N)c(N=Nc2ccc(S(=O)(=O)Nc3ccccn3)cc2)c(=O)[nH]1
inactive: [8] 94 % of control | [9] 94 % of control | [10] 94 % of control

C=Cc1ccccn1
inactive: [11] 98 % of control | [12] 102 % of control | endpoint: mean survival time, dose: 300.0 mg/kg/injection, schedule: Q01DX001 (ip), vehicle: saline 97 % of control

Cc1cc(NCC(O)C(O)C(O)CO)c(C(=O)NN)cc1C (stereo not drawn)
inactive: [8] 101 % of control | [9] 96 % of control | [10] 95 % of control

O=C(NCCCl)Nc1cccc2c1CCC2
inactive: [13] 93 % of control | [14] 86 % of control

CC(=O)c1cccc(NC(=O)Nc2cccc(O)c2)c1
inactive: [15] 101 % of control | [16] 97 % of control | [17] 101 % of control

COc1ccc2nc3cc(Cl)ccc3c(NCCCCN(C)C)c2c1
inactive: endpoint: mean survival time, dose: 6.0 mg/kg/injection, schedule: Q04DX003 (ip), vehicle: saline 97 % of control | endpoint: mean survival time, dose: 12.5 mg/kg/injection, schedule: Q04DX003 (ip), vehicle: saline 99 % of control

O=S(=O)(NC1CCCCC1)c1ccccc1
inactive: endpoint: mean survival time, dose: 75.0 mg/kg/injection, schedule: Q01DX009 (ip), vehicle: saline with Tween-80 94 % of control | endpoint: mean survival time, dose: 150.0 mg/kg/injection, schedule: Q01DX009 (ip), vehicle: saline with Tween-80 95 % of control | endpoint: mean survival time, dose: 300.0 mg/kg/injection, schedule: Q01DX009 (ip), vehicle: saline with Tween-80 97 % of control

Nc1nc(N)nc(-c2ccncc2)n1
inactive: endpoint: mean survival time, dose: 50.0 mg/kg/injection, schedule: Q01DX009 (ip), vehicle: saline with Tween-80 119 % of control

Cc1ccc2c(c1)nc1c3ccccc3nc(-c3ccccc3N)n21
inactive: [1] 89 % of control | [2] 104 % of control | [3] 87 % of control | [4] 91 % of control | [5] 104 % of control

Cc1ccccc1-c1c2ccccc2c2ccccc2[n+]1[O-]
inactive: endpoint: mean survival time, dose: 50.0 mg/kg/injection, schedule: Q01DX009 (ip), vehicle: Klucel (hydroxypropylcellulose) (HPC) 101 % of control | [15] 101 % of control | [16] 108 % of control

CCC1(c2ccccc2)C(=O)NC(=O)NC1=O
inactive: [11] 105 % of control | [12] 100 % of control | endpoint: median survival time, dose: 25.0 mg/kg/injection, schedule: Q12HX034 (sc), vehicle: saline 106 % of control | endpoint: median survival time, dose: 50.0 mg/kg/injection, schedule: Q12HX034 (sc), vehicle: saline 100 % of control

CCCCCCCCCCCCSC1CC(=O)N(c2ccccc2)C1=O (stereo not drawn)
inactive: endpoint: mean survival time, dose: 37.5 mg/kg/injection, schedule: Q04DX003 (ip), vehicle: other 99 % of control and 109 % of control | endpoint: mean survival time, dose: 50.0 mg/kg/injection, schedule: Q01DX001 (ip), vehicle: other 98 % of control and 101 % of control and 104 % of control | endpoint: mean survival time, dose: 75.0 mg/kg/injection, schedule: Q04DX003 (ip), vehicle: other 86 % of control and 89 % of control | endpoint: mean survival time, dose: 100.0 mg/kg/injection, schedule: Q04DX002 (ip), vehicle: other 95 % of control and 89 % of control | endpoint: mean survival time, dose: 100.0 mg/kg/injection, schedule: Q04DX003 (ip), vehicle: other 103 % of control | endpoint: mean survival time, dose: 150.0 mg/kg/injection, schedule: Q04DX003 (ip), vehicle: other 86 % of control and 88 % of control | endpoint: mean survival time, dose: 200.0 mg/kg/injection, schedule: Q04DX002 (ip), vehicle: other 89 % of control and 92 % of control | endpoint: mean survival time, dose: 200.0 mg/kg/injection, schedule: Q04DX003 (ip), vehicle: other 97 % of control | endpoint: mean survival time, dose: 400.0 mg/kg/injection, schedule: Q04DX002 (ip), vehicle: other 96 % of control and 89 % of control | endpoint: mean survival time, dose: 400.0 mg/kg/injection, schedule: Q04DX003 (ip), vehicle: other 94 % of control

CCCC(O)(CC)CCC
inactive: [2] 100 % of control | [4] 100 % of control

CC(N)C(O)C(Cl)(Cl)Cl (stereo not drawn)
inactive: [2] 92 % of control | [4] 92 % of control | [5] 90 % of control

Cc1ccc(S(=O)(=O)O)cc1.[Ag]
inactive: endpoint: mean survival time, dose: 25.0 mg/kg/injection, schedule: Q04DX002 (ip), vehicle: saline + alcohol 92 % of control | endpoint: mean survival time, dose: 50.0 mg/kg/injection, schedule: Q04DX002 (ip), vehicle: saline + alcohol 96 % of control

CN(C(=O)N(C)c1ccccc1)c1ccccc1
inactive: [15] 102 % of control | [13] 103 % of control | [16] 96 % of control | [14] 103 % of control | [17] 95 % of control | endpoint: mean survival time, dose: 400.0 mg/kg/injection, schedule: Q04DX003 (ip), vehicle: Klucel (hydroxypropylcellulose) (HPC) 103 % of control

Cc1cccc(NC(=O)Nc2ccc(Cl)cc2)c1C
inactive: endpoint: mean survival time, dose: 100.0 mg/kg/injection, schedule: Q01DX009 (ip), vehicle: gum acacia 100 % of control | endpoint: mean survival time, dose: 100.0 mg/kg/injection, schedule: Q04DX003 (ip), vehicle: gum acacia 95 % of control | endpoint: mean survival time, dose: 200.0 mg/kg/injection, schedule: Q01DX009 (ip), vehicle: gum acacia 100 % of control | endpoint: mean survival time, dose: 200.0 mg/kg/injection, schedule: Q04DX003 (ip), vehicle: gum acacia 95 % of control | endpoint: mean survival time, dose: 400.0 mg/kg/injection, schedule: Q01DX009 (ip), vehicle: gum acacia 92 % of control | endpoint: mean survival time, dose: 400.0 mg/kg/injection, schedule: Q04DX003 (ip), vehicle: gum acacia 97 % of control

CCOP(=O)(OCC)Oc1ccccc1
inactive: endpoint: mean survival time, dose: 100.0 mg/kg/injection, schedule: Q04DX003 (ip), vehicle: saline 91 % of control | endpoint: mean survival time, dose: 200.0 mg/kg/injection, schedule: Q04DX003 (ip), vehicle: saline 92 % of control | endpoint: mean survival time, dose: 400.0 mg/kg/injection, schedule: Q04DX003 (ip), vehicle: saline 94 % of control

CCN(CC)c1nc(SCc2ccccc2Cl)ncc1C
inactive: endpoint: mean survival time, dose: 100.0 mg/kg/injection, schedule: Q01DX Z (ip), vehicle: methylcellulose (MC) 93 % of control | endpoint: mean survival time, dose: 200.0 mg/kg/injection, schedule: Q01DX Z (ip), vehicle: methylcellulose (MC) 98 % of control

COC(=O)c1ccccc1C=O
inactive: [6] 102 % of control | [7] 107 % of control

CC(CBr)C(=O)O (stereo not drawn)
inactive: endpoint: mean survival time, dose: 100.0 mg/kg/injection, schedule: Q04DX002 (ip), vehicle: saline with Tween-80 97 % of control | endpoint: mean survival time, dose: 200.0 mg/kg/injection, schedule: Q04DX002 (ip), vehicle: saline with Tween-80 97 % of control

CN1C(=O)CN=C(c2ccccn2)c2cc(Cl)ccc21
inactive: endpoint: mean survival time, dose: 100.0 mg/kg/injection, schedule: Q01DX001 (ip), vehicle: saline sonified 112 % of control | endpoint: mean survival time, dose: 200.0 mg/kg/injection, schedule: Q01DX001 (ip), vehicle: saline sonified 96 % of control | endpoint: mean survival time, dose: 400.0 mg/kg/injection, schedule: Q01DX001 (ip), vehicle: saline sonified 103 % of control
